Measurements from US11155586B2, “Cystine knot scaffold platform” (Genentech, Inc., priority 2015, dated 2021).
Positions of bridges follow the written chain, without caps; N, C: chain ends. Residues, ends and D or L forms follow the SMILES beside them.

molecular target: T1, hVEGF-A (Homo sapiens, UniProt P15692); experiment: KDR-CHO VEGF assay to determine cellular IC50 (VEGF mediated Tyr phosphorylation of KDR); type: cell-based; settings: Table 36, from cellular IC50
T1 sequence (P15692 207-395): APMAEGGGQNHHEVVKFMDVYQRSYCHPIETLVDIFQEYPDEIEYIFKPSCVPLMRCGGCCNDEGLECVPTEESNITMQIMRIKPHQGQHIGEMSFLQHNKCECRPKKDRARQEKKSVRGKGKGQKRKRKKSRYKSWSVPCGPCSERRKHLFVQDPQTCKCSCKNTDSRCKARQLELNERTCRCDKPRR
Procedure: KDR-CHO cells (CHO cells stably transfected with gD tagged-KDR) were grown in cell growth medium (DMEM/Ham's F-12, 10% diafiltered FBS (GIBCO catalog no. 26400), 25 mM HEPES, 2 mM L-GLUTAMAX™). For VEGF stimulation assay, 5×10^4 cells/well were plated in 100 μl of cell plating medium (DMEM/Ham's F-12, 0.2% BSA, 0.25% diafiltered FBS, 25 mM HEPES, 2 mM L-GLUTAMAX™) in 96-well tissue culture plate and incubated at 37° C. overnight. The medium was replaced with 100 I1 of serum-free cell stimulation medium (DMEM/Ham's F-12, 0.5% BSA, 25 mM HEPES) and cells were incubated at 37° C. for 2 hr. One hour before stimulation, the medium was replaced with 50 I1 of serum-free cell stimulation medium. Concurrently, VEGF (50 ng/ml for hVEGF, 100 ng/ml for mVEGF and rVEGF) was pre-incubated with titrated amount of CKP or anti-VEGF in 50 μl of serum-free cell stimulation medium at 37° C. for 1 hour and added to the cells. The cells were stimulated for 15 min at 37 C and the medium is removed. The cells were lysed with 130 I1 of ice-cold cell lysis buffer (150 mM NaCl, 50 mM HEPES, 0.5% Triton-X 100, HALT protease and phosphatase inhibitor cocktail (ThermoFisher Scientific, Inc. catalog no. 78444), 5 mM EDTA). VEGF mediated Tyr phosphorylation of KDR was determined by ELISA-based assay. Briefly, MAXISORP™ 96 well plates (ThermoFisher Scientific, Inc. catalog no. 439454) were coated with 100 I1 of anti-gD antibody diluted in PBS (1 μg/ml) at 4° C. overnight and washed three times with washing buffer (PBS, 0.05% TWEEN®20, pH 7.4). The plates were blocked with 300 I1 of blocking buffer (PBS, 0.5% BSA) at room temperature for 1 hour followed by washing three times with washing buffer. The above KDR-CHO cell lysate (100 μl) was added to each well and incubated at room temperature for 2 hours. The plates were washed four times with washing buffer followed by incubation with 100 I1 of 0.5 μg/ml biotin-conjugated anti-phosphotyrosine (clone 4G10, Millipore catalog no. 16-103) in blocking buffer at room temperature for 2 hours. After washing four times, the plates were incubated with 100 I1 of HRP-conjugated streptavidin in blocking buffer at room temperature for 30 min. After washing four times, the plates were developed with 100 I1 of TMB substrate (BD Biosciences) at room temperature for 20-30 min and stopped by addition of 50 μl of H2SO4 solution. The optical density of each well was determined using a microplate reader set to 450 nm.

Compared with `CC[C@H](C)[C@H](NC(=O)[C@@H]1CSSC[C@H](NC(=O)CN)C(=O)N[C@@H](CC(N)=O)C(=O)N[C@@H]([C@@H](C)CC)C(=O)N[C@@H](CCSC)C(=O)N[C@@H](CC(C)C)C(=O)N2CCC[C@H]2C(=O)N[C@@H](Cc2ccccc2)C(=O)N[C@@H](Cc2c[nH]c3ccccc23)C(=O)NCC(=O)N[C@H]2CSSC[C@H](NC(=O)[C@H](CCC(=O)O)NC(=O)[C@H](Cc3ccccc3)NC(=O)[C@H](CC(=O)O)NC(=O)[C@H](CCCNC(=N)N)NC(=O)CNC2=O)C(=O)N[C@@H](CCSC)C(=O)N[C@@H](CO)C(=O)N[C@@H](CC(=O)O)C(=O)N1)C(=O)N[C@H]1CSSC[C@@H](C(=O)NCC(=O)O)NC(=O)[C@H](CO)NC(=O)[C@H](CCC(N)=O)NC(=O)[C@H](Cc2ccc(O)cc2)NC(=O)[C@H](Cc2ccc(O)cc2)NC(=O)[C@H](CCC(N)=O)NC1=O` [9.54.90.12] (H-GCNIMLPFWGCGRDFECMSDCICQYYQSCG-OH; disulfide 2-21, 11-17, 23-29; N-terminus and C-terminus assumed), `CC[C@H](C)[C@H](NC(=O)[C@@H]1CSSC[C@H](NC(=O)CN)C(=O)N[C@@H](CC(N)=O)C(=O)N[C@@H]([C@@H](C)CC)C(=O)N[C@@H](CCSC)C(=O)N[C@@H](CC(C)C)C(=O)N2CCC[C@H]2C(=O)N[C@@H](Cc2ccccc2)C(=O)N[C@@H](Cc2c[nH]c3ccccc23)C(=O)NCC(=O)N[C@H]2CSSC[C@H](NC(=O)[C@H](CCC(=O)O)NC(=O)[C@H](Cc3ccccc3)NC(=O)[C@H](CC(=O)O)NC(=O)[C@H](CCCNC(=N)N)NC(=O)CNC2=O)C(=O)N[C@@H](CCSC)C(=O)N[C@@H](CC(N)=O)C(=O)N[C@@H](CCC(N)=O)C(=O)N1)C(=O)N[C@H]1CSSC[C@@H](C(=O)NCC(=O)O)NC(=O)[C@H](CO)NC(=O)[C@H](CCC(N)=O)NC(=O)[C@H](Cc2ccc(O)cc2)NC(=O)[C@H](Cc2ccc(O)cc2)NC(=O)[C@H](CCC(N)=O)NC1=O` [9.54.90.13] (H-GCNIMLPFWGCGRDFECMNQCICQYYQSCG-OH; disulfide 2-21, 11-17, 23-29; N-terminus and C-terminus assumed) is higher in “FOLD IMPROVEMENT RELATIVE TO VARIANT 9.54.90” value: 1.125 for the first, 1.41 for the second.

First: CC[C@H](C)[C@H](NC(=O)[C@@H]1CSSC[C@H](NC(=O)CN)C(=O)N[C@@H](CC(N)=O)C(=O)N[C@@H]([C@@H](C)CC)C(=O)N[C@@H](CCSC)C(=O)N[C@@H](CC(C)C)C(=O)N2CCC[C@H]2C(=O)N[C@@H](Cc2ccccc2)C(=O)N[C@@H](Cc2c[nH]c3ccccc23)C(=O)NCC(=O)N[C@H]2CSSC[C@H](NC(=O)[C@H](CCC(=O)O)NC(=O)[C@H](Cc3ccccc3)NC(=O)[C@H](CC(=O)O)NC(=O)[C@H](CCCNC(=N)N)NC(=O)CNC2=O)C(=O)N[C@@H](CCSC)C(=O)N[C@@H](CCC(N)=O)C(=O)N[C@@H]([C@@H](C)O)C(=O)N1)C(=O)N[C@H]1CSSC[C@@H](C(=O)NCC(=O)O)NC(=O)[C@H](CO)NC(=O)[C@H](CCC(N)=O)NC(=O)[C@H](Cc2ccc(O)cc2)NC(=O)[C@H](Cc2ccc(O)cc2)NC(=O)[C@H](CCC(N)=O)NC1=O [9.54.90.25] (H-GCNIMLPFWGCGRDFECMQTCICQYYQSCG-OH; disulfide 2-21, 11-17, 23-29; N-terminus and C-terminus assumed)
Second: CC[C@H](C)[C@@H]1NC(=O)[C@H](Cc2ccccc2)NC(=O)[C@@H]2CSSC[C@H](NC(=O)CNC(=O)[C@H](Cc3c[nH]c4ccccc34)NC(=O)[C@H](Cc3ccccc3)NC(=O)[C@@H]3CCCN3C(=O)[C@H](CC(C)C)NC(=O)[C@H](CCSC)NC(=O)[C@H]([C@@H](C)CC)NC(=O)[C@H](CC(N)=O)NC(=O)[C@@H](NC(=O)CN)CSSC[C@@H](C(=O)N[C@H](C(=O)N[C@H]3CSSC[C@@H](C(=O)NCC(=O)O)NC(=O)[C@H](CO)NC(=O)[C@H](CCC(N)=O)NC(=O)[C@H](Cc4ccc(O)cc4)NC(=O)[C@H](Cc4ccc(O)cc4)NC(=O)[C@H](CCC(N)=O)NC3=O)[C@@H](C)CC)NC(=O)[C@H](CC(N)=O)NC1=O)C(=O)NCC(=O)N[C@@H](CCCNC(=N)N)C(=O)N[C@@H](CC(=O)O)C(=O)N[C@@H](Cc1ccccc1)C(=O)N[C@@H](CCC(=O)O)C(=O)N2 [9.54.90.44] (H-GCNIMLPFWGCGRDFECFINCICQYYQSCG-OH; disulfide 2-21, 11-17, 23-29; N-terminus and C-terminus assumed)
The “FOLD IMPROVEMENT RELATIVE TO VARIANT 9.54.90” value of the first is lower: 1.07 for the first, 1.16 for the second.

same assay, conditions: Table 38, from cellular IC50

Compared with `CC[C@H](C)[C@H](NC(=O)[C@@H]1CSSC[C@H](NC(=O)CN)C(=O)N[C@@H](CC(N)=O)C(=O)N[C@@H]([C@@H](C)CC)C(=O)N[C@@H](CCSC)C(=O)N[C@@H](CC(C)C)C(=O)N2CCC[C@H]2C(=O)N[C@@H](Cc2ccc(O)cc2)C(=O)N[C@@H](Cc2c[nH]c3ccccc23)C(=O)NCC(=O)N[C@H]2CSSC[C@H](NC(=O)[C@H](CCC(=O)O)NC(=O)[C@H](Cc3ccccc3)NC(=O)[C@H](CC(=O)O)NC(=O)[C@H](CCCNC(=N)N)NC(=O)CNC2=O)C(=O)N[C@@H](CCSC)C(=O)N[C@@H](CC(N)=O)C(=O)N[C@@H](CCC(N)=O)C(=O)N1)C(=O)N[C@H]1CSSC[C@@H](C(=O)NCC(=O)O)NC(=O)[C@H](CO)NC(=O)[C@H](CCC(N)=O)NC(=O)[C@H](Cc2ccc(O)cc2)NC(=O)[C@H](Cc2ccc(O)cc2)NC(=O)[C@H](CCC(N)=O)NC1=O` [9.54.90.13.F8Y] (H-GCNIMLPYWGCGRDFECMNQCICQYYQSCG-OH; disulfide 2-21, 11-17, 23-29; N-terminus and C-terminus assumed), `CC[C@H](C)[C@H](NC(=O)[C@@H]1CSSC[C@H](NC(=O)CN)C(=O)N[C@@H](CC(N)=O)C(=O)N[C@@H]([C@@H](C)CC)C(=O)N[C@@H](CCSC)C(=O)N[C@@H](CC(C)C)C(=O)N2CCC[C@H]2C(=O)N[C@@H](Cc2ccccc2)C(=O)N[C@@H](Cc2c[nH]c3ccccc23)C(=O)NCC(=O)N[C@H]2CSSC[C@H](NC(=O)[C@H](CCC(=O)O)NC(=O)[C@H](Cc3ccccc3)NC(=O)[C@H](CC(=O)O)NC(=O)[C@H](CCCNC(=N)N)NC(=O)CNC2=O)C(=O)N[C@@H](CCSC)C(=O)N[C@@H](CC(N)=O)C(=O)N[C@@H](CCC(N)=O)C(=O)N1)C(=O)N[C@H]1CSSC[C@@H](C(=O)NCC(=O)O)NC(=O)[C@H](CO)NC(=O)[C@H](CCC(N)=O)NC(=O)[C@H](Cc2ccc(O)cc2)NC(=O)[C@H](Cc2ccc(O)cc2)NC(=O)[C@H](CCC(N)=O)NC1=O` [9.54.90.13] (H-GCNIMLPFWGCGRDFECMNQCICQYYQSCG-OH; disulfide 2-21, 11-17, 23-29; N-terminus and C-terminus assumed) is higher in “FOLD IMPROVEMENT RELATIVE TO VARIANT 9.54.90” value: 0.67 for the first, 1.41 for the second.

For `CC[C@H](C)[C@H](NC(=O)[C@@H]1CSSC[C@H](NC(=O)CN)C(=O)N[C@@H](CC(N)=O)C(=O)N[C@@H]([C@@H](C)CC)C(=O)N[C@@H](CCSC)C(=O)N[C@@H](CC(C)C)C(=O)N2CCC[C@H]2C(=O)N[C@@H](Cc2ccc(O)cc2)C(=O)N[C@@H](Cc2c[nH]c3ccccc23)C(=O)NCC(=O)N[C@H]2CSSC[C@H](NC(=O)[C@H](CCC(=O)O)NC(=O)[C@H](Cc3ccccc3)NC(=O)[C@H](CC(=O)O)NC(=O)[C@H](CCCNC(=N)N)NC(=O)CNC2=O)C(=O)N[C@@H](Cc2ccccc2)C(=O)N[C@@H](Cc2ccc(O)cc2)C(=O)N[C@@H](CCC(=O)O)C(=O)N1)C(=O)N[C@H]1CSSC[C@@H](C(=O)NCC(=O)O)NC(=O)[C@H](CO)NC(=O)[C@H](CCC(N)=O)NC(=O)[C@H](Cc2ccc(O)cc2)NC(=O)[C@H](Cc2ccc(O)cc2)NC(=O)[C@H](CCC(N)=O)NC1=O` [9.54.90.62.F8Y] (H-GCNIMLPYWGCGRDFECFYECICQYYQSCG-OH; disulfide 2-21, 11-17, 23-29; N-terminus and C-terminus assumed), the “FOLD IMPROVEMENT RELATIVE TO VARIANT 9.54.90” value was 1.18.
